Experimental data taken from ChEMBL document CHEMBL4304828, “PROTAC-Mediated Degradation of Estrogen Receptor in the Treatment of Cancer” (ACS Med Chem Lett, 2019).

Columns and labels:
[1] = biological target: T1, von Hippel-Lindau disease tumor suppressor/Estrogen receptor (Homo sapiens, UniProt P03372+P40337); assay: Induction of VHL E3 ligase mediated ERalpha degradation in human MCF7 cells assessed as downregulation of ERalpha expression by cell-based immunofluorescence assay
Target sequence in this assay (P40337 whole entry, one chain of several): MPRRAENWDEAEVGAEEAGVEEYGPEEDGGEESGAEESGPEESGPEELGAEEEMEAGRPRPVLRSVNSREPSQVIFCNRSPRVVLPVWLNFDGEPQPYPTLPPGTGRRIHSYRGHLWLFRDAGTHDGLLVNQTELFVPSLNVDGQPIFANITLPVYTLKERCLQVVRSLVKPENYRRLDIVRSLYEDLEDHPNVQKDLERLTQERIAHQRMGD

[2] = biological target: T1, von Hippel-Lindau disease tumor suppressor/Estrogen receptor; assay: Induction of VHL E3 ligase mediated ERalpha degradation in human MCF7 cells at 0.3 uM by cell-based immunofluorescence assay
Target sequence in this assay (P40337 whole entry, looked up, one chain of several): as the sequence (P40337 whole entry, one chain of several) above

Estrogen receptor = biological target: T2, Estrogen receptor (Homo sapiens, UniProt P03372); assay: Displacement of fluorescent ligand from human recombinant GST-tagged ER-alpha ligand binding domain (307 to 554 residues) incubated for 15 mins by TR-FRET based competitive assay
T2 sequence (P03372 whole entry): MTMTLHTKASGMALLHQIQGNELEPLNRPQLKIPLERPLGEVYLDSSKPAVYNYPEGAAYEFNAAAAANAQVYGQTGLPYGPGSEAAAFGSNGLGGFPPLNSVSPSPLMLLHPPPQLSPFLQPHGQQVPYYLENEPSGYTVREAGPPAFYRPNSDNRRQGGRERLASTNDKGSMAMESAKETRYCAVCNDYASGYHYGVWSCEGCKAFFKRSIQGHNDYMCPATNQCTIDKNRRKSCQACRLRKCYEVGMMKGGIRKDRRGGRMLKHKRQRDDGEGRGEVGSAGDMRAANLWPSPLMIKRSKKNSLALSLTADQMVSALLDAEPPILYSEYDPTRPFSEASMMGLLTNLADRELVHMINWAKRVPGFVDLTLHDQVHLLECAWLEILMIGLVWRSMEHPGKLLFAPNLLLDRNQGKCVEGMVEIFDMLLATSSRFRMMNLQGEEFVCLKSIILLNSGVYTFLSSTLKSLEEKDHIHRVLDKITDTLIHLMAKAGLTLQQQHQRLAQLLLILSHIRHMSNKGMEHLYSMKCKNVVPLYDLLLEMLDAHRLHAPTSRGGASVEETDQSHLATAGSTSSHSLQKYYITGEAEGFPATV

SMILES | IC50 [1] | Activity [2] | IC50 (Estrogen receptor)
Cc1ncsc1-c1ccc([C@H](C)NC(=O)[C@@H]2C[C@@H](O)CN2C(=O)[C@@H](NC(=O)COCCOCCOCCOc2cc(F)c([C@@H]3c4[nH]c5ccccc5c4C[C@@H](C)N3CC(C)(C)F)c(F)c2)C(C)(C)C)cc1 | 0.3 nM | > 90% | –
Cc1ncsc1-c1ccc(CNC(=O)[C@@H]2C[C@@H](O)CN2C(=O)[C@@H](NC(=O)COCCCOCCCOc2cc(F)c([C@@H]3c4[nH]c5ccccc5c4C[C@@H](C)N3CC(C)(C)F)c(F)c2)C(C)(C)C)cc1 | 0.3 to 0.4 nM | > 90% | –
Cc1ncsc1-c1ccc(CNC(=O)[C@@H]2C[C@@H](O)CN2C(=O)[C@@H](NC(=O)COCCCOCCOc2cc(F)c([C@@H]3c4[nH]c5ccccc5c4C[C@@H](C)N3CC(C)(C)F)c(F)c2)C(C)(C)C)cc1 | 0.4 nM | > 90% | –
C[C@]12CC[C@@H]3c4ccc(O)cc4C[C@@H](CCCCCCCCC[S+]([O-])CCCC(F)(F)C(F)(F)F)[C@H]3[C@@H]1CC[C@@H]2O (some centres not stated) | – | 100% | –
Cc1ncsc1-c1ccc(CNC(=O)[C@@H]2C[C@@H](O)CN2C(=O)[C@@H](NC(=O)COCCOCCC(F)(F)CCOc2cc(F)c([C@@H]3c4[nH]c5ccccc5c4C[C@@H](C)N3CC(C)(C)F)c(F)c2)C(C)(C)C)cc1 | 0.8 nM | > 90% | –
Cc1ncsc1-c1ccc([C@H](C)NC(=O)[C@@H]2C[C@@H](O)CN2C(=O)[C@@H](NC(=O)COCCOCCCCCOc2cc(F)c([C@@H]3c4[nH]c5ccccc5c4C[C@@H](C)N3CC(C)(C)F)c(F)c2)C(C)(C)C)cc1 | 0.6 nM | > 90% | 0.5 nM
